Measured values reported in patent US20260132127A1, “NOVEL SPIRO COMPOUND” (MITSUBISHI TANABE PHARMA CORPORATION, priority 2021, published 2026).

Target: T1, human TRH-DE (Homo sapiens, UniProt Q9UKU6)
T1 construct: expressed in transfected cells; host or cells: Expi 293 cells (transient expression), membrane fraction
T1 sequence (Q9UKU6 1-1069): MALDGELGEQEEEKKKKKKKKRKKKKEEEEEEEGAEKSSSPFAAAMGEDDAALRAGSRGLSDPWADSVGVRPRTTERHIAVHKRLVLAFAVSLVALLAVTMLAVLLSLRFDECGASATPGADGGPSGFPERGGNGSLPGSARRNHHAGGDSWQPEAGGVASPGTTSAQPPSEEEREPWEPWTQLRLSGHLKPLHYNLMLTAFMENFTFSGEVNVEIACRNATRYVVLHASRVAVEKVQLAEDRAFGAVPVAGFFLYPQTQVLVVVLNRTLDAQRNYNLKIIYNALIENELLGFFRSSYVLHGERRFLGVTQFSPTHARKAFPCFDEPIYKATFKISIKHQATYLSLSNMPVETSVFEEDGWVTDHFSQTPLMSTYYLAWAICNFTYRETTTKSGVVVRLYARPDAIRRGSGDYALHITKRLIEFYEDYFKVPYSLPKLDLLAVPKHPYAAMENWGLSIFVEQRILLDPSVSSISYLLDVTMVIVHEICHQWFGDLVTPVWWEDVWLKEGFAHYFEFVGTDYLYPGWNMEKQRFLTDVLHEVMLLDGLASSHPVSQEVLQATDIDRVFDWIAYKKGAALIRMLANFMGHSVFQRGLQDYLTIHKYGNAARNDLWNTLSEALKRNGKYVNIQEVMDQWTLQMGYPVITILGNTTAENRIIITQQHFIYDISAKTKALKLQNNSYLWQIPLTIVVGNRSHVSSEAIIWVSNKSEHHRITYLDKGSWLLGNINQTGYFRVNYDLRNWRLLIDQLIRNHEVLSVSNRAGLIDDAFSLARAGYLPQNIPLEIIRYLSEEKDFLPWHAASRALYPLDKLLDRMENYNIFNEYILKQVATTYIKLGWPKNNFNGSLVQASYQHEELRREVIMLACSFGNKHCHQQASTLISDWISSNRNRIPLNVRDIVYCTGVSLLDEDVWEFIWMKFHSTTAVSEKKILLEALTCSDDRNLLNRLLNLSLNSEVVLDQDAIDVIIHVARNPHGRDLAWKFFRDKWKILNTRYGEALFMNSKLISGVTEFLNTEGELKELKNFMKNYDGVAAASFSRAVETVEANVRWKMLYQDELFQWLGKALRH
Experiment: TRH-DE inhibition test (RapidFire MS measurement of product Cyclo (His-Pro))
Format: biochemical
Conditions: membrane fraction of Expi 293 cells expressing human TRH-DE; 10 μM TRH substrate; room temperature, 2 hours; 16-point concentration test
Procedure, shortened: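 Inhibition derived from product/internal-standard ratios of Cyclo(His-Pro), quantified by RapidFire triple-quadrupole MS after acetonitrile:methanol quench, with IC50 fitted over 16 concentrations. Enzyme source: membranes of Expi 293 cells transiently expressing human TRH-DE, 4 μg/ml, pH 7.4 phosphate buffer. Incubation with 10 μM substrate ran 2 h at room temperature.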

| SMILES | IC50 |
| --- | --- |
| CC1COc2nccc(F)c2C(=O)N1C1CC2(C1)CN(S(=O)(=O)c1ccccc1F)C2 (racemic) [Example 25] | 54 nM |
| CC1(O)c2cccnc2C(=O)N1C1CC2(C1)CN(S(=O)(=O)c1ccccc1F)C2 (racemic) [Example 278] | 146 nM |
| CC(C)Nc1ncc2c(n1)OC[C@@H](C)N(C1CC3(C1)CN(S(=O)(=O)c1ccccc1F)C3)C2=O [Example 410] | 5 nM |
| C[C@@H]1COc2nc(NC3CC3)ncc2C(=O)N1C1CC2(C1)CN(S(=O)(=O)c1ccccc1F)C2 [Example 409] | 4 nM |
| C[C@@H]1CCN(C(=O)C2(F)CC2)CC(=O)N1C1CC2(C1)CN(S(=O)(=O)c1ccccc1F)C2 [Example 452] | 88 nM |
| CC1COc2cccnc2C(=O)N1C1CC2(C1)CN(S(=O)(=O)c1ccccc1F)C2 (single isomer, unassigned) [Example 348] | 5 nM |
| Cc1noc2c1C(=O)N(C1CC3(C1)CN(S(=O)(=O)c1ccccc1F)C3)[C@H](C)CC2 [Example 105] | 14 nM |
| CC(C)C(=O)N1C[C@@H](C)N(C2CC3(C2)CN(S(=O)(=O)c2ccccc2F)C3)C(=O)c2ncccc21 [Example 305] | 62 nM |
| COc1ccc2c(n1)C(=O)N(C1CC3(C1)CN(S(=O)(=O)c1ccccc1F)C3)C2C (racemic) [Example 294] | 118 nM |
| C[C@@H]1Cn2nc(C3(C(F)(F)F)CC3)cc2C(=O)N1C1CC2(C1)CN(S(=O)(=O)c1ccccc1F)C2 [Example 227] | 9 nM |
| C[C@@H]1CCn2c(nnc2-c2ccccc2)C(=O)N1C1CC2(C1)CN(S(=O)(=O)c1ccccc1F)C2 [Example 263] | 32 nM |
| CCC1COc2ccncc2C(=O)N1C1CC2(C1)CN(S(=O)(=O)c1ccccc1F)C2 (racemic) [Example 52] | 22 nM |
| C[C@@H]1COc2nc(C(F)F)sc2C(=O)N1C1CC2(C1)CN(S(=O)(=O)c1ccccc1F)C2 [Example 176] | 13 nM |
| CC1c2ccccc2NCC(=O)N1C1CC2(C1)CN(S(=O)(=O)c1ccccc1F)C2 (racemic) [Example 47] | 544 nM |
| CCCN(C(=O)c1cccnc1N(C)C)C1CC2(C1)CN(S(=O)(=O)c1cc(C)ccc1F)C2 [Example 427] | 52 nM |
| Cc1nc2c(s1)C(=O)N(C1CC3(C1)CN(S(=O)(=O)c1ccccc1F)C3)[C@H](C)CO2 [Example 175] | 12 nM |
| C[C@@H]1COc2nc(N3C[C@H]4C[C@@H](C3)O4)ncc2C(=O)N1C1CC2(C1)CN(S(=O)(=O)c1ccccc1F)C2 [Example 398] | 2 nM |
| C[C@@H]1CNc2nc(C(F)(F)F)ccc2C(=O)N1C1CC2(C1)CN(S(=O)(=O)c1ccccc1F)C2 [Example 346, (3R)-4-[2-(2-fluorophenyl)sulfonyl-2-azaspiro[3.3]heptan-6-yl]-3-methyl-8-(trifluoromethyl)-2,3-dihydro-1H-pyrido[2,3-e][1,4]diazepin-5-one] | 2 nM |
| CC1Cc2ccccc2C(=O)N1C1CC2(C1)CN(S(=O)(=O)c1ccccc1F)C2 (centres unmarked) [Example 240] | 14 nM |
| C[C@@H]1COc2nc(N3CCCC34CCOC4)ncc2C(=O)N1C1CC2(C1)CN(S(=O)(=O)c1ccccc1F)C2 (mixture of isomers) [Example 406] | 6 nM |
| COc1ccc(S(=O)(=O)N2CC3(CC(N4C(=O)c5cccnc5OCC4C)C3)C2)cc1 (racemic) [Example 75] | 120 nM |
| CC1COc2ccncc2C(=O)N1C1CC2(C1)CN(S(=O)(=O)c1ccccc1F)C2 (racemic) [Example 51] | 8 nM |
| C[C@@H]1COc2ncc(C#N)cc2C(=O)N1C1CC2(C1)CN(S(=O)(=O)c1ccccc1F)C2 [Example 333, (3R)-4-[2-(2-fluorophenyl)sulfonyl-2-azaspiro[3.3]heptan-6-yl]-3-methyl-5-oxo-2,3-dihydropyrido[3,2-f][1,4]oxazepin-7-carbonitrile] | 18 nM |
| Cc1nc2c(s1)C(=O)N(C1CC3(C1)CN(S(=O)(=O)c1ccccc1F)C3)[C@H](C)CC2 [Example 90] | 23 nM |

| SMILES | IC50 |
| --- | --- |
| C[C@@H]1CN(C(=O)C2CC2)c2cccnc2C(=O)N1C1CC2(C1)CN(S(=O)(=O)c1ccccc1F)C2 [Example 306] | 56 nM |
| CC1Cc2nc(C(F)(F)F)ccc2C(=O)N1C1CC2(C1)CN(S(=O)(=O)c1ccccc1F)C2 (single isomer, unassigned) [Example 356] | 44 nM |
| C[C@@H]1COc2nc(N(C)C)ncc2C(=O)N1C1CC2(C1)CN(S(=O)(=O)c1ccccc1F)C2 [Example 380] | 3 nM |
| CCC1(O)c2ccccc2C(=O)N1C1CC2(C1)CN(S(=O)(=O)c1cc(OC)ccc1F)C2 (racemic) [Example 289] | 338 nM |
| CC1c2ccccc2C(=O)N1C1CC2(C1)CN(S(=O)(=O)c1ccccc1F)C2 (centres unmarked) [Example 266, 2-[2-(2-fluorophenyl)sulfonyl-2-azaspiro[3.3]heptan-6-yl]-3-methyl-isoindolin-1-one] | 92 nM |
| CC1Cc2ccccc2OC(=O)N1C1CC2(C1)CN(S(=O)(=O)c1ccccc1F)C2 (racemic) [Example 71] | 126 nM |
| C[C@@H]1COc2nc(N3CC4(COC4)C3)ncc2C(=O)N1C1CC2(C1)CN(S(=O)(=O)c1ccccc1F)C2 [Example 407] | 5 nM |
| C[C@@H]1COc2nc(N3CCOC(F)(F)C3)ncc2C(=O)N1C1CC2(C1)CN(S(=O)(=O)c1ccccc1F)C2 [Example 391] | 4 nM |
| C[C@@H]1CCn2c(C3CC3)nc(Cl)c2C(=O)N1C1CC2(C1)CN(S(=O)(=O)c1ccccc1F)C2 [Example 299] | 33 nM |
| C[C@@H]1COc2nc(N3C[C@@H]4C[C@H]3CO4)ncc2C(=O)N1C1CC2(C1)CN(S(=O)(=O)c1ccccc1F)C2 [Example 397] | 7 nM |
| CC1c2cccnc2C(=O)N1C1CC2(C1)CN(S(=O)(=O)c1ccccc1F)C2 (racemic) [Example 291] | 215 nM |
| CC(C)Oc1ncc2c(n1)OC[C@@H](C)N(C1CC3(C1)CN(S(=O)(=O)c1ccccc1F)C3)C2=O [Example 369, (7R)-6-[2-(2-fluorophenyl)sulfonyl-2-azaspiro[3.3]heptan-6-yl]-7-methyl-2-propan-2-yloxy-7,8-dihydropyrimid[5,4-f][1,4]oxazepin-5-one] | 8 nM |
| C[C@@H]1Cn2nc(Cl)cc2C(=O)N1C1CC2(C1)CN(S(=O)(=O)c1ccccc1F)C2 [Example 223] | 18 nM |
| C[C@@H]1CCn2c(C3CC3)nc(C(F)F)c2C(=O)N1C1CC2(C1)CN(S(=O)(=O)c1ccccc1F)C2 [Example 342, (7R)-3-cyclopropyl-1-(difluoromethyl)-8-[2-(2-fluorophenyl)sulfonyl-2-azaspiro[3.3]heptan-6-yl]-7-methyl-6,7-dihydro-5H-imidazo[1,5-a][1,4]diazepin-9-one] | 50 nM |
| C[C@@H]1COc2nc(OC3CCC3)ncc2C(=O)N1C1CC2(C1)CN(S(=O)(=O)c1ccccc1F)C2 [Example 371] | 5 nM |
| CC1CCc2[nH]c(=O)ccc2C(=O)N1C1CC2(C1)CN(S(=O)(=O)c1ccccc1F)C2 (centres unmarked) [Example 339, 6-[2-(2-fluorophenyl)sulfonyl-2-azaspiro[3.3]heptan-6-yl]-7-methyl-1,7,8,9-tetrahydropyrido[3,2-c]azepin-2,5-dione] | 78 nM |
| CC1COc2ncccc2C(=O)N1C1CC2(C1)CN(S(=O)(=O)c1ccccc1Cl)C2 (racemic) [Example 73] | 92 nM |
| C[C@@H]1COc2nn(C)c(C3CC3)c2C(=O)N1C1CC2(C1)CN(S(=O)(=O)c1ccccc1F)C2 [Example 321] | 74 nM |
| C[C@@H]1COc2nc(N3[C@@H]4CCC[C@H]3COC4)ncc2C(=O)N1C1CC2(C1)CN(S(=O)(=O)c1ccccc1F)C2 [Example 390] | 11 nM |
| CC1CCc2nc(C(F)(F)F)sc2C(=O)N1C1CC2(C1)CN(S(=O)(=O)c1ccccc1F)C2 (single isomer, unassigned) [Example 353] | 66 nM |
| CC1c2ccccc2C(=O)N1C1CC2(C1)CN(S(=O)(=O)c1ccccc1F)C2 (single isomer, unassigned) [Example 359] | 454 nM |
| Cc1nc2c(s1)C(=O)N(C1CC3(C1)CN(S(=O)(=O)c1ccccc1F)C3)C(C)CO2 (racemic) [Example 174] | 19 nM |
| C[C@@H]1Cn2ncc(Br)c2C(=O)N1C1CC2(C1)CN(S(=O)(=O)c1ccccc1F)C2 [Example 230] | 19 nM |
